Data from US8895547B2, “Substituted phenyl-oxathiazine derivatives, method for producing them, drugs containing said compounds and the use thereof” (Sanofi, priority 2011, dated 2014).

Target: T1, human 11β-HSD1 (Homo sapiens, UniProt P28845)
T1 construct: host or cells: microsome fraction
Test: Enzymatic 11beta-HSD1 test (SPA-based detection)
Type: biochemical
Conditions: human 11β-HSD1 microsome fraction, [1,2-3H]-cortisone, NADPH, 37° C. 1 hour
Experimental: Enzymatic 11beta-HSD1 test:
To measure the activity of the compounds, an SPA-based detection method (Solly et al. 2005) was employed. First of all, 20 μl of the human 11β-HSD1 microsome fraction (0.2 μg of protein), prepared in 50 mM HEPES, 0.1% BSA (w/v), were applied to a plate with 384 wells. The test compounds (0.09 μl) were applied to the assay plate in 100% DMSO. The reaction was started by addition of 20 μl of [1,2-^3H]-cortisone (0.1 μCi/[…]) in assay buffer comprising 25 mM HEPES, 100 mM KCl, 5 mM NaCl, 2 mM MgCl2 and 0.25 mM NADPH. The plate was agitated at 37° C. for 1 hour. At the same time, a stop solution comprising 20 mg/ml SPA-PVT beads, 1.6 mg/ml monoclonal cortisol antibody and 0.01 mM SSR110887 (inhibitor from the Biovitrium patent) in 50 mM HEPES, 1 M NaCl and 1 M KCl was stirred at room temperature. To stop the reaction, 25 μl of the stop solution were added to each well. The plate was agitated gently at room temperature for 1 further hour and then centrifuged at 500 gav for 1 minute, in order that the SPA beads could settle out. The plate was then read in a Wallac-1450-Microbeta unit with a standard SPA program (counting time 1 min/well). The comparative compound was glycyrrhetinic acid.
Protein and radioactive substrate were dispensed with a Biomek FX unit (Beckman Coulter) for handling liquids. The test compounds were added with a Cybi-Well equipped with a 90 nl pin tool (CyBio).
Lit.: Solly S, Mundt S S, Zokian H J, Juy-Fang Ding G, Hermanowski-Vosatka A, Strulovici B and Zheng W. High-throughput screening of 11β-Hydroxysteroid dehydrogenase type 1 in scintillation proximity format. Assay Drug Dev Technol 2005; 3:377-384.

T1 sequence (P28845 whole entry): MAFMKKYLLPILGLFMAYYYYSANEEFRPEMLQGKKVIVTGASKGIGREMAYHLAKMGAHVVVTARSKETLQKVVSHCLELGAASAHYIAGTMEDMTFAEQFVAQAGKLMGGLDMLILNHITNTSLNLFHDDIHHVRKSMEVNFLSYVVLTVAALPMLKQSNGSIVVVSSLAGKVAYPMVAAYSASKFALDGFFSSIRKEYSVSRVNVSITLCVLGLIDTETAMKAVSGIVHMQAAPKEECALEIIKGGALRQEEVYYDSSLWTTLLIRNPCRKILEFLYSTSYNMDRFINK

Structure (SMILES)	IC50 [nM]
C[C@H](NC1=NS(=O)(=O)C(c2cccc(C(=O)NCc3ccccn3)c2)C(C)(C)O1)c1ccccc1F (stereo partly drawn) [Example 194, 3-{2-[(S)-1-(2-fluorophenyl)-ethylamino]-6,6-dimethyl-4,4-dioxo-5,6-dihydro-4H-4lambda6-[1,4,3]oxathiazin-5-yl}-N-pyridin-2-ylmethyl-benzamide]	14
C[C@H](NC1=NS(=O)(=O)C(c2ccc(N3CCN(C)CC3)cc2)C(C)(C)O1)c1ccccc1F (stereo partly drawn) [Example 170, {6,6-Dimethyl-5-[4-(4-methyl-piperazin-1-yl)-phenyl]-4,4-dioxo-5,6-dihydro-4H-4lambda6-[1,4,3]oxathiazin-2-yl}-[(S)-1-(2-fluorophenyl)-ethyl]-amine]	246
C[C@H](NC1=NS(=O)(=O)[C@@H](c2ccc(-c3ccnc(C#N)c3)cc2)C(C)(C)O1)c1ccccc1F [Example 186, 4-(4-{(S)-2-[(S)-1-(2-fluorophenyl)-ethylamino]-6,6-dimethyl-4,4-dioxo-5,6-dihydro-4H-4lambda6-[1,4,3]oxathiazin-5-yl}-phenyl)-pyridine-2-carbonitrile]	11
CC1(C)OC(N[C@@H](CCO)c2ccccc2F)=NS(=O)(=O)C1c1ccc(N2C(=O)c3ccccc3C2=O)cc1 (stereo partly drawn) [Example 141, 2-(4-{2-[(S)-1-(2-fluorophenyl)-3-hydroxy-propylamino]-6,6-dimethyl-4,4-dioxo-5,6-dihydro-4H-4lambda6-[1,4,3]oxathiazin-5-yl}-phenyl)-isoindole-1,3-dione]	14
C[C@H](NC1=NS(=O)(=O)C(C)(c2ccccc2)C(C)(C)O1)c1ccccc1F (stereo partly drawn) [Compound 57, [(S)-1-(2-Fluorophenyl)ethyl]-(5,6,6-trimethyl-4,4-dioxo-5-phenyl-5,6-dihydro-4H-4lambda6-[1,4,3]oxathiazin-2-yl)amine, stereomer 2]	7
CC(=O)c1ccc(C2C(C)(C)OC(N[C@@H](CCO)c3ccccc3F)=NS2(=O)=O)cc1 (stereo partly drawn) [Example 144]	10
CC1(C)OC(N[C@@H](CCO)c2ccccc2F)=NS(=O)(=O)C1c1ccc(-c2ccccc2C#N)cc1 (stereo partly drawn) [Example 87]	7
C[C@H](NC1=NS(=O)(=O)C(C)(c2cccc(N3CCCC3)c2)C(C)(C)O1)c1ccccc1F (stereo partly drawn) [Compound 36, [(S)-1-(2-Fluorophenyl)ethyl]-[5,6,6-trimethyl-4,4-dioxo-5-(3-pyrrolidin-1-ylphenyl)-5,6-dihydro-4H-4lambda6-[1,4,3]oxathiazin-2-yl]amine]	15
CC1(C)OC(N[C@@H](CCO)c2ccccc2F)=NS(=O)(=O)C1(C)c1cccc(-c2ccccc2)c1 (single isomer, unassigned) [Example 75]	44
CC1(C)OC(N[C@@H](CCO)c2ccccc2F)=NS(=O)(=O)C1c1cccnc1 (stereo partly drawn) [Example 161, (S)-3-(6,6-Dimethyl-4,4-dioxo-5-pyridin-3-yl-5,6-dihydro-4H-4lambda6-[1,4,3]oxathiazin-2-ylamino)-3-(2-fluorophenyl)-propan-1-ol]	11
CC1(C)OC(N[C@@H](CCO)c2ccccc2)=NS(=O)(=O)C1c1cccc(Br)c1 (stereo partly drawn) [Example 7, (S)-3-[5-(3-Bromophenyl)-6,6-dimethyl-4,4-dioxo-5,6-dihydro-4H-4lambda6-[1,4,3]oxathiazin-2-ylamino]-3-phenyl-propan-1-ol]	20
CN(CCCc1ccc(C2C(C)(C)OC(N[C@@H](CCO)c3ccccc3F)=NS2(=O)=O)cc1)CC(F)F (stereo partly drawn) [Example 116, (S)-3-[5-(4-{3-[(2,2-Difluoroethyl)-methyl-amino]-propyl}-phenyl)-6,6-dimethyl-4,4-dioxo-5,6-dihydro-4H-4lambda6-[1,4,3]oxathiazin-2-ylamino]-3-(2-fluorophenyl)-propan-1-ol]	5
CC1(C)OC(N[C@@H](CCO)c2ccccc2F)=NS(=O)(=O)C1c1ccc(-c2csc(N3CCOCC3)n2)cc1 (stereo partly drawn) [Example 118, (S)-3-{6,6-Dimethyl-5-[4-(2-morpholin-4-yl-thiazol-4-yl)-phenyl]-4,4-dioxo-5,6-dihydro-4H-4lambda6-[1,4,3]oxathiazin-2-ylamino}-3-(2-fluorophenyl)-propan-1-ol]	8
CC1(C)OC(N[C@@H](CCO)c2ccccc2F)=NS(=O)(=O)C1c1ccc(-c2ccc(F)cc2)cc1 (stereo partly drawn) [Example 65, (S)-3-[5-(4′-Fluorobiphenyl-4-yl)-6,6-dimethyl-4,4-dioxo-5,6-dihydro-4H-4lambda6-[1,4,3]oxathiazin-2-ylamino]-3-(2-fluorophenyl)-propan-1-ol]	21
CC(=O)Oc1ccc(C2C(C)(C)OC(N[C@@H](CCO)c3ccccc3F)=NS2(=O)=O)cc1 (stereo partly drawn) [Example 155, Acetic acid 4-{2-[(S)-1-(2-fluorophenyl)-3-hydroxy-propylamino]-6,6-dimethyl-4,4-dioxo-5,6-dihydro-4H-4lambda6-[1,4,3]oxathiazin-5-yl}-phenyl ester]	17
CC1(C)OC(N[C@@H](CCO)c2cc(F)ccc2F)=NS(=O)(=O)C1c1ccc(-c2ccccc2)cc1 (stereo partly drawn) [Example 98, (S)-3-(5-Biphenyl-4-yl-6,6-dimethyl-4,4-dioxo-5,6-dihydro-4H-4lambda6-[1,4,3]oxathiazin-2-ylamino)-3-(2,5-difluorophenyl)-propan-1-ol]	12
CN(C)C(=O)c1ccc(-c2ccc(C3C(C)(C)OC(N[C@@H](CCO)c4ccccc4F)=NS3(=O)=O)cc2)cc1 (stereo partly drawn) [Example 112, 4′-{2-[(S)-1-(2-fluorophenyl)-3-hydroxy-propylamino]-6,6-dimethyl-4,4-dioxo-5,6-dihydro-4H-4lambda6-[1,4,3]oxathiazin-5-yl}-biphenyl-4-carboxylic acid dimethylamide]	7
CC1(C)OC(N[C@@H](CCO)c2ccccc2F)=NS(=O)(=O)C1c1ccc(N2CCN(CCC(F)(F)F)CC2)cc1 (single isomer, unassigned) [Example 183]	20
CC1(C)OC(N[C@@H](CCO)c2ccccc2F)=NS(=O)(=O)C1c1ccc(N2CCCC2=O)cc1 (stereo partly drawn) [Example 132, 1-(4-{2-[(S)-1-(2-fluorophenyl)-3-hydroxy-propylamino]-6,6-dimethyl-4,4-dioxo-5,6-dihydro-4H-4lambda6-[1,4,3]oxathiazin-5-yl}-phenyl)-pyrrolidin-2-one]	14
CN(C)CCCc1ccc(C2C(C)(C)OC(N[C@@H](CCO)c3ccccc3F)=NS2(=O)=O)cc1 (stereo partly drawn) [Example 108, (S)-3-{5-[4-(3-Dimethylamino-propyl)-phenyl]-6,6-dimethyl-4,4-dioxo-5,6-dihydro-4H-4lambda6-[1,4,3]oxathiazin-2-ylamino}-3-(2-fluorophenyl)-propan-1-ol]	42
CC1(C)OC(N[C@@H](CCO)c2ccccc2F)=NS(=O)(=O)C1c1ccc(-c2cscn2)cc1 (stereo partly drawn) [Example 101, (S)-3-[6,6-Dimethyl-4,4-dioxo-5-(4-thiazol-4-yl-phenyl)-5,6-dihydro-4H-4lambda6-[1,4,3]oxathiazin-2-ylamino]-3-(2-fluorophenyl)-propan-1-ol]	5
CC1(C)OC(NC2CCCCC2)=NS(=O)(=O)C1c1cccc(OCc2ccccc2)c1 (stereo not drawn) [Example 19, [5-(3-Benzyloxy-phenyl)-6,6-dimethyl-4,4-dioxo-5,6-dihydro-4H-4lambda6-[1,4,3]oxathiazin-2-yl]-cyclohexyl-amine]	352
C[C@H](NC1=NS(=O)(=O)C(c2ccc(C3CCN(C(C)(C)C)CC3)cc2)C(C)(C)O1)c1ccccc1F (stereo partly drawn) [Example 171, {5-[4-(1-tert-Butyl-piperidin-4-yl)-phenyl]-6,6-dimethyl-4,4-dioxo-5,6-dihydro-4H-4lambda6-[1,4,3]oxathiazin-2-yl}-[(S)-1-(2-fluorophenyl)-ethyl]-amine]	108
CC1(C)OC(N[C@@H](CCO)c2ccccc2F)=NS(=O)(=O)[C@@H]1c1ccc(-c2ccnc(C#N)c2)cc1 [Example 185, 4-(4-{(R)-2-[(S)-1-(2-fluorophenyl)-3-hydroxy-propylamino]-6,6-dimethyl-4,4-dioxo-5,6-dihydro-4H-4lambda6-[1,4,3]oxathiazin-5-yl}-phenyl)-pyridine-2-carbonitrile]	4
C[C@H](NC1=NS(=O)(=O)C(c2ccc(-c3ccnc(C#N)c3)nc2)C(C)(C)O1)c1ccccc1F (stereo partly drawn) [Example 191, 5-{2-[(S)-1-(2-fluorophenyl)-ethylamino]-6,6-dimethyl-4,4-dioxo-5,6-dihydro-4H-4lambda6-[1,4,3]oxathiazin-5-yl}-[2,4′]bipyridinyl-2′-carbonitril]	460
CC1(C)OC(N[C@@H](CCO)c2ccccc2F)=NS(=O)(=O)[C@@H]1c1ccc(-c2ccc(C(N)=O)cc2)cc1 [Example 147, 4′-{(R)-2-[(S)-1-(2-fluorophenyl)-3-hydroxy-propylamino]-6,6-dimethyl-4,4-dioxo-5,6-dihydro-4H-4lambda6-[1,4,3]oxathiazin-5-yl}-biphenyl-4-carboxamide]	9
CC1(C)OC(N[C@@H](CCO)c2ccccc2F)=NS(=O)(=O)C1c1ccc(N2CCN(CCC(F)(F)F)CC2)cc1 (single isomer, unassigned) [Example 182]	6
